Measured values: EP0422215B1, “ANTIBACTERIAL AND AN[…]” (THE ROCKEFELLER UNIVERSITY, priority 1989, dated 1990)

System: Sheep Red Cells
Assay: lysis of sheep red blood cells (lysis assay or inhibition zone plate assay with SRC)
Type: cell-based
Details: for concentration lytic to sheep red blood cells: stated in running text
Experimental: These values were obtained by either the lysis assay normally used for melittin or by an adaptation of the antibacterial inhibition zone assay of the above-cited Hultmark et al. articles to plates with sheep red cells (SRC). With respect to the latter, sterile agarose plates contained 6 ml of medium with 1% agarose, 0.9% NaCl and 10% SRC suspended in Alsevers solution. A dilution series of peptide was applied in 3mm wells each loaded with 3 µl of the respective samples. The plates were incubated at 30°C for 24 h, the zones were recorded and LC values calculated as described in the Hultmark et al. articles. Clear zones were recorded after a few hours of incubation and the use of such data gave an LC value of the same order as readings after 24 h. This plate assay is faster and more convenient than the lysis assay normally used for melittin.

Row | SMILES | concentration lytic to sheep red blood cells [µM] | concentration lytic to sheep red blood cells (listed as CA(1-13) M(1-13)) | fold improvement over natural melittin in lysis of red cells (compared with melittin)
1 | CC[C@H](C)[C@H](NC(=O)CNC(=O)[C@H](CCC(N)=O)NC(=O)CNC(=O)[C@@H](NC(=O)[C@H](CCCCN)NC(=O)[C@H](CCC(=O)O)NC(=O)[C@@H](NC(=O)[C@H](CCCCN)NC(=O)[C@H](CCCCN)NC(=O)[C@H](Cc1ccccc1)NC(=O)[C@H](CC(C)C)NC(=O)[C@H](CCCCN)NC(=O)[C@H](Cc1c[nH]c2ccccc12)NC(=O)[C@@H](N)CCCCN)[C@@H](C)CC)C(C)C)C(=O)NCC(=O)N[C@@H](C)C(=O)N[C@H](C(=O)N[C@@H](CC(C)C)C(=O)N[C@@H](CCCCN)C(=O)N[C@H](C(=O)N[C@@H](CC(C)C)C(=O)N[C@H](C(=O)N[C@H](C(=O)NCC(=O)N[C@@H](CC(C)C)C(N)=O)[C@@H](C)O)[C@@H](C)O)C(C)C)C(C)C [CA(1-13)M(1-13)] | > 100 | greater than 200 µM | –
2 | CC[C@H](C)[C@H](NC(=O)CNC(=O)[C@@H]1CCCN1C(=O)CNC(=O)[C@H](C)NC(=O)[C@H](CCCCN)NC(=O)[C@@H](NC(=O)[C@@H](NC(=O)CNC(=O)[C@H](CC(=O)O)NC(=O)[C@H](CCCNC(=N)N)NC(=O)[C@@H](NC(=O)[C@H](CC(N)=O)NC(=O)[C@H](CCC(N)=O)NC(=O)CNC(=O)[C@@H](NC(=O)[C@H](CCCCN)NC(=O)[C@H](CCC(=O)O)NC(=O)[C@@H](NC(=O)[C@H](CCCCN)NC(=O)[C@H](CCCCN)NC(=O)[C@H](Cc1ccccc1)NC(=O)[C@H](CC(C)C)NC(=O)[C@H](CCCCN)NC(=O)[C@H](Cc1c[nH]c2ccccc12)NC(=O)[C@@H](N)CCCCN)[C@@H](C)CC)C(C)C)[C@@H](C)CC)[C@@H](C)CC)[C@@H](C)CC)C(=O)NCC(=O)N[C@@H](C)C(=O)N[C@H](C(=O)N[C@@H](CC(C)C)C(=O)N[C@@H](CCCCN)C(=O)N[C@H](C(=O)N[C@@H](CC(C)C)C(=O)N[C@H](C(=O)N[C@H](C(=O)NCC(=O)N[C@@H](CC(C)C)C(N)=O)[C@@H](C)O)[C@@H](C)O)C(C)C)C(C)C [CA(1-24)M(1-13)] | > 100 | – | –
3 | CC[C@H](C)[C@H](NC(=O)CNC(=O)[C@H](CCC(N)=O)NC(=O)[C@H](CCC(N)=O)NC(=O)[C@H](CCCNC(=N)N)NC(=O)[C@H](CCCCN)NC(=O)[C@H](CCCNC(=N)N)NC(=O)[C@H](CCCCN)NC(=O)[C@@H](NC(=O)[C@H](Cc1c[nH]c2ccccc12)NC(=O)[C@H](CO)NC(=O)[C@@H](NC(=O)[C@@H](N)CC(C)C)[C@@H](C)CC)[C@@H](C)CC)C(=O)NCC(=O)N[C@@H](C)C(=O)N[C@H](C(=O)N[C@@H](CC(C)C)C(=O)N[C@@H](CCCCN)C(=O)N[C@H](C(=O)N[C@@H](CC(C)C)C(=O)N[C@H](C(=O)N[C@H](C(=O)NCC(=O)N[C@@H](CC(C)C)C(N)=O)[C@@H](C)O)[C@@H](C)O)C(C)C)C(C)C [M(16-26)M(1-13)] | > 240 | – | 40-60 fold
